Laboratory results taken from patent US20240174718A1, “RYANODINE RECEPTOR INHIBITOR COMPOUNDS AND METHODS RELATING THERETO” (Vanderbilt University, priority 2022, published 2024).

Experiments:
Casq2-/- mice = assay: Catecholamine-induced arrhythmia challenge (ECG) in CPVT mice; type: in vivo, mouse
Description: Triple crossover study design for in vivo arrhythmia challenge. N=22 Casq2^−/− mice were randomly assigned to vehicle (DMSO), 3 mg/kg, or 30 mg/kg ent-B1 and crossed over twice with one-week washouts between treatment. Mice underwent catecholamine-induced arrhythmia challenge with isoproterenol 15 min after intraperitoneal drug administration. […] Ectopic beats are denoted by p (PVC), c (couplet), and vt (ventricular tachycardia). Normal sinus beats are not marked. […] Individual data are shown with median and interquartile range. Bonferroni-adjusted P values by pairwise Wilcoxon matched-pairs signed rank test. *P=0.020 vs Veh; #P=0.039 vs Veh. […] Bonferroni-adjusted P values by pairwise Wilcoxon matched- pairs signed rank test. #P=0.0058 vs Vehicle.
ECG recording—Nine male and thirteen female Casq2^−/− mice 17-20 weeks old were randomly assigned to a three-by-three crossover design such that every treatment sequence was sampled. Mice were pretreated with intraperitoneal injection of vehicle (DMSO), 3 mg/kg ent-B1, or 30 mg/kg of ent-B1 fifteen minutes prior to baseline ECG recording. Mice were then injected with 3 mg/kg isoproterenol intraperitoneally. Recordings were continued for 5 minutes or for 1 minute after cessation of ventricular ectopy. A washout period of one week was used between treatments. The Vanderbilt Institutional Animal Care and Use Committee (IACUC) approved the use of mice in these studies (protocol #M1900057-01). Animals had free access to food and water.
ECG analysis—LabChart (AD Instruments, Inc) was used to analyze ECG recordings by a reviewer blinded to treatment dose. ECG records were examined to quantify premature ventricular contractions (PVCs), duration of ventricular tachycardia, heart rate, and baseline ECG parameters (PR, QRS and QT interval). Arrhythmias were scored on a five point ordinal scale based on the number of PVCs with the following criteria: 1) zero point for no PVCs; 2) one point for isolated PVCs; 3) two points for bigeminy (alternating sinus beats and PVCs); 4) three points for couplets (two consecutive PVCs); and 5) four points for three or more consecutive PVCs (ventricular tachycardia).
(§1) All tests were two-sided and a p-value cutoff of <0.05 was used to denote significance. Concentration-response curves for RyR2 single-channel, [^3H]ryanodine ligand binding and intact myocyte assays were generated using non-linear regression with the equation: Y=Bottom+(Top−Bottom)/(1+(IC50/X)^HillSlope) using least square regression, no weighting, and no constrains on the parameters. The distributions of relative RyR2 open probability at each [ent-B1] were normalized by taking the log of each sample. For the 3×3 crossover in vivo ECG study, a pre-test was conducted using a mixed model with fixed effects of sequence and period; mice were treated as random effects.
Casq2^−/− mice are a validated model for preclinical testing of antiarrhythmic drugs for CPVT. […] The same doses of ent-B1 were tested in a triple-crossover design with each mouse receiving vehicle (DMSO), 3 mg/kg, and 30 mg/kg with a one-week washout period between experiments. […] ECGs were analyzed in blinded fashion and ventricular arrhythmias quantified. […] We also scored the mice based on the ventricular arrhythmia severity, i.e., premature ventricular complexes (PVCs)<bigeminy<couplets<ventricular tachycardia. […]

RyR2 = target: T1, RyR2 (Mus musculus, UniProt E9Q401); assay: Intracellular Ca2+ measurements / spontaneous Ca2+ release in intact Casq2-/- cardiomyocytes; type: cell-based
T1 construct: spontaneous openings of intracellular RyR2 Ca^2+ release channels; endogenous in cells; host or cells: ventricular cardiomyocytes isolated from Casq2-/- mice (saponin-permeabilized in A1, intact in A7)
T1 sequence (E9Q401 whole entry): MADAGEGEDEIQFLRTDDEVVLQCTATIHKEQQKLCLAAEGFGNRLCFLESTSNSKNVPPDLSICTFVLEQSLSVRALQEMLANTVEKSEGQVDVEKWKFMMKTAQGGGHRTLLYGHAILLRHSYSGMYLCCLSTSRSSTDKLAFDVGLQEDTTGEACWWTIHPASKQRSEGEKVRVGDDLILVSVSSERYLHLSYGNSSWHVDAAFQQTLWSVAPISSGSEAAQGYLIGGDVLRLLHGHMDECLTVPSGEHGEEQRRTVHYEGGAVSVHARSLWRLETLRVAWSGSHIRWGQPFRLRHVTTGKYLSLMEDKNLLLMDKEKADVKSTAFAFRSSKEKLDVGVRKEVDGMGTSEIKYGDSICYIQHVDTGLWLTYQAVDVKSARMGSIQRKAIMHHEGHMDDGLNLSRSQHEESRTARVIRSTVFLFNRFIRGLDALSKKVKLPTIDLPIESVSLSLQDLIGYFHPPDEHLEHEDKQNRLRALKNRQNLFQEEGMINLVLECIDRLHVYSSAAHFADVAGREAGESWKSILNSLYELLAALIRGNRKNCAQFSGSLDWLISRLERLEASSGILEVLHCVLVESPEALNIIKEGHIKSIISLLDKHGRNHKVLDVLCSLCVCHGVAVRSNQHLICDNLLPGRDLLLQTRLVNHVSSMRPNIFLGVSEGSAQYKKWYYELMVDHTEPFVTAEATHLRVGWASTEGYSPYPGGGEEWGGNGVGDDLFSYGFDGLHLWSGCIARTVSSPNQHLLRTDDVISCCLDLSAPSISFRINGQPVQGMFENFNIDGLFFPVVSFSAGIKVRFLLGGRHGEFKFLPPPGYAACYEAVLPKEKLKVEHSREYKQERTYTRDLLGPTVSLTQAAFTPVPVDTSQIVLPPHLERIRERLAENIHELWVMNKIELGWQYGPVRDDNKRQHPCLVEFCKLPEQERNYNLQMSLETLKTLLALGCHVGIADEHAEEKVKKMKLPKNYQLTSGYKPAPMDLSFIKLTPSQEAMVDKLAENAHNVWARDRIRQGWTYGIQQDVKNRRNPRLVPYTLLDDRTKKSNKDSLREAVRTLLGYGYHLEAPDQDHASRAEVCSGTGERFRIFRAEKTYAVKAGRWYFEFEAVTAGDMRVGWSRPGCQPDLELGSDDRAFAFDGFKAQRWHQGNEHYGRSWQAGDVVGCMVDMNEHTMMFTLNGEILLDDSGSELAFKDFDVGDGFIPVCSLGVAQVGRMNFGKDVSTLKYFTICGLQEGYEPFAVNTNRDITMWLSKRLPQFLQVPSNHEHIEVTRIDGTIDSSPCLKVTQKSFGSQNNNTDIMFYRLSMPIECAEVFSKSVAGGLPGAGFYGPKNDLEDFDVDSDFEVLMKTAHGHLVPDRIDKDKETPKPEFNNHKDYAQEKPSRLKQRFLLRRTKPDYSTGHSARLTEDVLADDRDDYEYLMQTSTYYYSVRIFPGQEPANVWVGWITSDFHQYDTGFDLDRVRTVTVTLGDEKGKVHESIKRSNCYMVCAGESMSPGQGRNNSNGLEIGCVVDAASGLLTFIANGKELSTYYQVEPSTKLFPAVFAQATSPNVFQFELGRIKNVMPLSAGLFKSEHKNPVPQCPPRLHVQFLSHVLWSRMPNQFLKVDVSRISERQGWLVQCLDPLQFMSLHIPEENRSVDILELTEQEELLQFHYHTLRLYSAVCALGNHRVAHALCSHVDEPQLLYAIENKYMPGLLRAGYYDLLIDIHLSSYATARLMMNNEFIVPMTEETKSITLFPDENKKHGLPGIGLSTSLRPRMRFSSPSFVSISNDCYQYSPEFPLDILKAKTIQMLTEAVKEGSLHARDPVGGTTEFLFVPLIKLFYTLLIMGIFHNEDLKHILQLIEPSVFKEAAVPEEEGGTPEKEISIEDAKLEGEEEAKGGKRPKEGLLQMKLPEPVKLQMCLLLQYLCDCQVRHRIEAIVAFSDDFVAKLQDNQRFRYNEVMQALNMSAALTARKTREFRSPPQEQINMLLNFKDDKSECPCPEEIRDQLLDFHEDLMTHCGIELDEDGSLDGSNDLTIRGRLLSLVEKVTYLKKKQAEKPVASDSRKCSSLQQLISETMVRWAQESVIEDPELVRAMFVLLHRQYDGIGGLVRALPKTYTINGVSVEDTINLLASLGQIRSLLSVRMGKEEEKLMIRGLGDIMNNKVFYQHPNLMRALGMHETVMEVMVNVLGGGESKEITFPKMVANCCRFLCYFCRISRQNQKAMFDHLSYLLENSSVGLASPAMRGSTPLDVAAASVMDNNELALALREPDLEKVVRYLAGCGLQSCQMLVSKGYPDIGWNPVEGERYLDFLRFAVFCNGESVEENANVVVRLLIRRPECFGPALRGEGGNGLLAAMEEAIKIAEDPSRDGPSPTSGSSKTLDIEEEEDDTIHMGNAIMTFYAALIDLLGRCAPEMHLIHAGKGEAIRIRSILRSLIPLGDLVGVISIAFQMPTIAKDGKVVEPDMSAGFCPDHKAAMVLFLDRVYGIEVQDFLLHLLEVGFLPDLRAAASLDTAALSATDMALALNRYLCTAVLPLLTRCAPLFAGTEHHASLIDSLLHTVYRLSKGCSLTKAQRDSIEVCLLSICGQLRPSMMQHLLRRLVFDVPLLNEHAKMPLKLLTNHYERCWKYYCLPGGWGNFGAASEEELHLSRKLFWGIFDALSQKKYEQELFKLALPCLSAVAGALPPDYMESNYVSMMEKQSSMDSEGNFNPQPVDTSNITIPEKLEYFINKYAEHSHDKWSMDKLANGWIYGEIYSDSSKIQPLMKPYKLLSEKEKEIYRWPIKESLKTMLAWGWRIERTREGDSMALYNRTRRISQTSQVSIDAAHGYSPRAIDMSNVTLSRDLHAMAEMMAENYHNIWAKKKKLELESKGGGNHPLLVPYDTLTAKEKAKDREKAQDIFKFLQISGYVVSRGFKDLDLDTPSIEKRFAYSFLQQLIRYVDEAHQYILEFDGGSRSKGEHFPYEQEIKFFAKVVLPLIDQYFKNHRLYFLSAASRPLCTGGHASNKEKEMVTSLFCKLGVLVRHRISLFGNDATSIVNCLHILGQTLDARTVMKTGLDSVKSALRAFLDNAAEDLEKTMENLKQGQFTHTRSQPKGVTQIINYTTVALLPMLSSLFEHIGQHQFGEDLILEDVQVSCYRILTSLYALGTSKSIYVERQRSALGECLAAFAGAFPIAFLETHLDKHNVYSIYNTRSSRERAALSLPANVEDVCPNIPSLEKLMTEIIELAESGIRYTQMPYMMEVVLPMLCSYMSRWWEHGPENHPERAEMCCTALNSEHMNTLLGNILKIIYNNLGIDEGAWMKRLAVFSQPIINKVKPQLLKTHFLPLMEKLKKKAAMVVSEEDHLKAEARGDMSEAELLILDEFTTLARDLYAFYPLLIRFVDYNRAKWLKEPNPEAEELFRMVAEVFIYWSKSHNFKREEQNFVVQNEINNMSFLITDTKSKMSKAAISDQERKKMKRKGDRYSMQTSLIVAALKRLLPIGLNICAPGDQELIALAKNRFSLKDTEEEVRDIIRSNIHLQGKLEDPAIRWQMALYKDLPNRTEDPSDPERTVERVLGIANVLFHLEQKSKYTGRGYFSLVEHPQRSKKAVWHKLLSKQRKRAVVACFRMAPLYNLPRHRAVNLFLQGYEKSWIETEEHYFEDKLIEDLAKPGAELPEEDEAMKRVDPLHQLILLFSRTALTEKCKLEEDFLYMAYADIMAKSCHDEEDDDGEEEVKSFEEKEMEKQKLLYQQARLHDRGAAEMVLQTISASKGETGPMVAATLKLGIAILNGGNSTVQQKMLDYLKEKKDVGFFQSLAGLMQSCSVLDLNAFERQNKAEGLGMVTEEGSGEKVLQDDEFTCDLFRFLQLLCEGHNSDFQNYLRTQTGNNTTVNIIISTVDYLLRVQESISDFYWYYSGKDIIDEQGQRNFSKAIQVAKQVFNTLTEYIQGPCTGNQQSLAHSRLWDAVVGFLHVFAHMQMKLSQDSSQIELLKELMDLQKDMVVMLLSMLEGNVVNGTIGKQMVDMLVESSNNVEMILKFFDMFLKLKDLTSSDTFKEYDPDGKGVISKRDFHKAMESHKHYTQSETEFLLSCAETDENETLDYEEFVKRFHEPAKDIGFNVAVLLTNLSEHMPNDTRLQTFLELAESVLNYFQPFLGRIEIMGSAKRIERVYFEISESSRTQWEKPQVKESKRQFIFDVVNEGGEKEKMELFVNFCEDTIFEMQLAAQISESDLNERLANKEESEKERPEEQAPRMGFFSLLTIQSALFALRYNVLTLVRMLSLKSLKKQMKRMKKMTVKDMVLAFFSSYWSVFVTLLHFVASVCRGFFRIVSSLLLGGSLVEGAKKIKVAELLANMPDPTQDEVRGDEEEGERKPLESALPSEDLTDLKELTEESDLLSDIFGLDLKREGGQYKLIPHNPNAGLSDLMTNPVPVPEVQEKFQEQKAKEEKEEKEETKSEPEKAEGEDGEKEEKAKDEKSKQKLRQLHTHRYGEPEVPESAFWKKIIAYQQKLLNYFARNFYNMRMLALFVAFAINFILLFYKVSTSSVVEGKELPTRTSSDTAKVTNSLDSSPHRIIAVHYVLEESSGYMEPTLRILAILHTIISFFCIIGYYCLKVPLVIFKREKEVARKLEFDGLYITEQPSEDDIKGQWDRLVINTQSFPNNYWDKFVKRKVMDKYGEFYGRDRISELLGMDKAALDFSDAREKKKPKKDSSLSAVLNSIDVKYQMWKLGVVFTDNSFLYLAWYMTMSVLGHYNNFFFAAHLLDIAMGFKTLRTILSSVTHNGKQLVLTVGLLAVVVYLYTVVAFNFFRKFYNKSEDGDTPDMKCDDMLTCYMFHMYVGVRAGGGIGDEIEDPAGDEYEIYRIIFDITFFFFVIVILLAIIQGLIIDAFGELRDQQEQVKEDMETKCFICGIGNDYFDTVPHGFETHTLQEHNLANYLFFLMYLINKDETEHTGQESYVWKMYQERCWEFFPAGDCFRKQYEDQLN
Description: FIGS. 4(A-G) show intracellular Ca2+ measurements from intact Casq2−/− cardiomyocytes. […] For panels A-D and G, N=26, 30, 30, 30, and 31 cells for DMSO, 0.03, 0.1, 1, and 3 μM ent-B1, respectively. For panels E and F, N=14, 27, 29, 29, and 30 cells for DMSO, 0.03, 0.1, 1, and 3 μM ent-B1, respectively. Data are shown as mean±SD with individual data points.
FIGS. 10(A-B) show the spontaneous Ca^2+ release in intact mouse Casq2^−/− cardiomyocytes. […] Cells were field stimulated at 3 Hz for 20 s before recording. Blue marks indicate final stimulations of pacing train, arrows SCR events. Recording duration was 40 s before 10 mM caffeine application to assess total SR Ca^2+ content. […] Data are shown as mean±SD.
Intracellular Ca^2+ measurements in intact cardiomyocytes—Ventricular cardiomyocytes were isolated from two male 10-week old and one female 13-week old Casq2^−/− mouse as described previously (Knollmann et al., 2006). Cardiomyocytes were pre-incubated for 2 hours with DMSO or ent-B1. Myocytes were then loaded with Fura-2 acetoxymethyl ester (Fura-2 AM; Invitrogen) as described previously (Batiste et al., 2019). Briefly, isolated single ventricular myocytes were incubated with 2 μM Fura-2 AM for 7 minutes to load the indicator in the cytosol. Myocytes were then washed twice for 10 minutes with normal Tyrode (NT) solution containing 250 μM probenecid (all solutions also contained either vehicle [DMSO] or ent-B1). The composition of NT used for Fura-2 loading and washing was (in mM): 134 NaCl, 5.4 KCl, 1.2 CaCl2, 1 MgCl2, 10 glucose, and 10 HEPES, pH adjusted to 7.4 with NaOH. After Fura-2 loading, all experiments were conducted in NT solution containing 1 μM isoproterenol and 2 mM CaCl2. Fura2-loaded myocytes were electrically paced at 3 Hz field stimulation and Ca transients were recorded for 20 seconds followed by no electrical stimulation for 40 seconds to record spontaneous Ca release events. After that, myocytes were perfused with 10 mM caffeine in NT solution for 5 seconds to estimate total SR Ca content. Fura-2 was measured using a dual-beam excitation fluorescence photometry setup (IonOptix Corp.) and analyzed using commercially available data analysis software (IonWizard, IonOptix, Milton, MA). All experiments were conducted at room temperature.
as §1

[1] = 3 μM (only the highest concentration tested)

## CCCCC[C@@H]1OC(=O)[C@@H](C)N(C)C(=O)[C@H](CCCCC)OC(=O)[C@@H](C)N(C)C(=O)[C@H](CCCCC)OC(=O)[C@@H](C)N(C)C1=O (single isomer, unassigned) [ent-B1]
Casq2-/- mice; 30 mg/kg i.p., Casq2-/- mice, isoproterenol challenge
  reduction in ventricular ectopy burden: 70%
Casq2-/- mice; 3 and 30 mg/kg i.p. vs vehicle
  incidence of VT: dose-dependent reduction
  number of total ectopic beats: dose-dependent reduction
Casq2-/- mice; only at the higher dose tested, 30 mg/kg
  suppression of ventricular tachycardia: statistically significant suppression
Casq2-/- mice; ordinal scale 0-4, vs vehicle
  arrhythmia risk scores: lower
RyR2
  Ca2+ decay kinetics (indicator of SERCA2 SR uptake rate): no effect
  time-to-peak of Ca2+ transients: no effect
RyR2; [1]
  amplitude of the caffeine-induced Ca2+ transient: reduced
  amplitude of the systolic Ca2+ transient: reduced
  diastolic Ca2+ levels: reduced
